Paper PMC8998746, “Effect of Clinically Used Microtubule Targeting Drugs on Viral Infection and Transport Function” (International Journal of Molecular Sciences, 2022)
Like-named read-outs stand apart in the source and are kept apart here.

Assays:
[1] = tested on: SARS-CoV-2 strain NL/2020; assay: microbe, parasite or virus in culture; assay type: cell-based; conditions: Severe acute respiratory syndrome coronavirus 2; A549-ACE2 cells, 1 h pretreatment, 48 h, optimal dose (PPT 100 nM); read-out: inhibition of SARS-CoV-2 infection
[2] = tested on: Vero cells; assay: Cell viability, CellTiter 96 assay, Vero; conditions: 24 h treatment
[3] = tested on: Vero E6 cells; assay: Cell viability, CellTiter 96 assay, Vero E6; conditions: Vero E6, 24 h treatment
[4] = tested on: Huh-7 Lunet C3 cells; assay: Cell viability, CellTiter 96 assay, Huh-7 Lunet C3; conditions: Huh-7 Lunet C3, 24 h treatment, over 80% cell viability
[5] = tested on: VSV-G-luc (vesicular stomatitis virus); assay type: cell-based
[6] = tested on: ASFV BPP30GFP; assay type: cell-based, African swine fever virus
[7] = tested on: Huh-7 Lunet C3 cells; conditions: human, 24 h
[8] = tested on: Vero E6 cells; conditions: African green monkey, 24 h
[9] = tested on: Vero cells; conditions: African green monkey, 24 h
[10] = tested on: DBP (dynein) movement along MTs in AHRTG cells; assay: In cell motility assay with dynein binding peptide probe (DBP); assay type: cell-based, human; conditions: for DBP mean displacement, decrease / DBP mean velocity, decrease / DBP mean movement / proportion of transported particles (TM/CM), reduction: NOC 2.5 µM, PTX 10 µM; for DBP mean displacement, decrease / DBP mean velocity, decrease: vs control; for DBP mean movement / proportion of transported particles (TM/CM), reduction: vs untreated
[11] = tested on: KBP (kinesin) movement along MTs in AHRTG cells; assay: In cell motility assay with kinesin binding peptide probe (KBP); assay type: cell-based, human; conditions: for KBP mean displacement, decrease / KBP mean velocity, decrease / KBP mean movement / proportion of transported particles (TM/CM), reduction: AHRTG cells, NOC 2.5 µM, PTX 10 µM; for KBP mean displacement, decrease / KBP mean velocity, decrease: vs control; for KBP mean movement / proportion of transported particles (TM/CM), reduction: vs untreated
[12] = tested on: VACV vtag2GFP; assay type: cell-based, vaccinia virus

SMILES | highest non-toxic concentration [2] [nM] | highest non-toxic concentration [3] [nM] | highest non-toxic concentration [4] [nM] | highest non-toxic concentration [7] [nM] | highest non-toxic concentration [8] [nM] | highest non-toxic concentration [9] [nM] | also measured
COc1cc([C@@H]2c3cc4c(cc3[C@H](O)[C@H]3COC(=O)[C@H]23)OCO4)cc(OC)c1OC [PPT, podophylotoxin] | 50 | 50 | 0.2 |  |  |  | inhibition at 0.1 µM [1]: 60%
CC[C@]1(O)C[C@@H]2CN(CCc3c([nH]c4ccccc34)[C@@](C(=O)OC)(c3cc4c(cc3OC)N(C)[C@H]3[C@@](O)(C(=O)OC)[C@H](OC(C)=O)[C@]5(CC)C=CCN6CC[C@]43[C@@H]65)C2)C1 [VBL, vinblastine] |  |  |  | 0.05 | 5 | 25 | decrease of VSV infection [5]: 90%; inhibition of ASFV early infection (BPP30GFP) [6]: up to 50%
CC[C@]1(O)C[C@H]2CN(CCc3c([nH]c4ccccc34)[C@@](C(=O)OC)(c3cc4c(cc3OC)N(C=O)[C@H]3[C@@](O)(C(=O)OC)[C@H](OC(C)=O)[C@]5(CC)C=CCN6CC[C@]43[C@@H]65)C2)C1 [VCR, vincristine] |  |  |  | 5 | 1 | 1 | 
COC(=O)Nc1nc2ccc(C(=O)c3ccccc3)cc2[nH]1 [MBZ, mebendazole] |  |  |  | 5 | 10 | 10 | concentration at which the DBP TM/CM ratio was affected ([10]; dose-response 0.1-10 μM MBZ): > 2.5 µM
CCCSc1ccc2nc(NC(=O)OC)[nH]c2c1 [ABZ, albendazole] | 25 | 25 | 1 |  |  |  | effect on KBP movement (TM/CM ratio) [11]: very low effect on motion; effect on KBP particle displacement [11]: no significant modification; effect on KBP particle velocity [11]: no significant modification
C=C1C[C@@H]2CC[C@@]34C[C@H]5O[C@H]6[C@@H](O3)[C@H]3O[C@H](CC[C@@H]3O[C@H]6[C@H]5O4)CC(=O)C[C@@H]3[C@@H](OC)[C@@H](C[C@H](O)CN)O[C@H]3C[C@H]3O[C@@H](CC[C@@H]1O2)C[C@@H](C)C3=C [ERIB, eribulin] |  |  |  | 0.01 | 10 | 100 | inhibition of ASFV early infection (BPP30GFP) [6]: up to 50%
COC(=O)Nc1nc2ccc(Sc3ccccc3)cc2[nH]1 [FBZ, febendazole] |  |  |  | 1 | 50 | 75 | reduction of VACV (vtag2GFP) viral infection [12]: 40%; inhibition of ASFV early infection (BPP30GFP) [6]: 30%
COc1cc2c(c(OC)c1OC)-c1ccc(OC)c(=O)cc1[C@@H](NC(C)=O)CC2 [COL, colchicine] | 75 | 25 | 0.2 |  |  |  | 
CO[C@H]1C(=O)[C@]2(C)[C@@H](OC)C[C@H]3OC[C@@]3(OC(C)=O)[C@H]2[C@H](OC(=O)c2ccccc2)[C@]2(O)C[C@H](OC(=O)[C@H](O)[C@@H](NC(=O)OC(C)(C)C)c3ccccc3)C(C)=C1C2(C)C [CTX, cabazitaxel] | 10 | 25 | 0.01 |  |  |  | effect on KBP movement (TM/CM ratio) [11]: affected particle motion
C/C(=C\c1csc(C)n1)[C@@H]1C[C@@H]2O[C@]2(C)CCC[C@H](C)[C@H](O)[C@@H](C)C(=O)C(C)(C)[C@@H](O)CC(=O)N1 [EPO, ixabepilone] |  |  |  | 0.05 | 25 | 25 | 
CC[C@]1(O)C[C@@H]2CN(CCc3c([nH]c4ccccc34)[C@@](C(=O)OC)(c3cc4c(cc3OC)N(C)[C@H]3[C@@](O)(C(N)=O)[C@H](O)[C@]5(CC)C=CCN6CC[C@]43[C@@H]65)C2)C1 [VDS, vindesine] |  |  |  | 0.02 | 100 | 100 | decrease of VSV infection [5]: 80%; inhibition of ASFV early infection (BPP30GFP) [6]: up to 50%
COc1ccc2c(c1OC)C(=O)O[C@@H]2[C@H]1c2c(cc3c(c2OC)OCO3)CCN1C [NOS, noscapine] |  |  |  | 100 | 100 | 100 | effect on KBP movement (TM/CM ratio) [11]: no effect on KBP movement
CC(=O)O[C@H]1C(=O)[C@@]2(C)[C@H]([C@H](OC(=O)c3ccccc3)[C@]3(O)C[C@H](OC(=O)[C@H](O)[C@@H](NC(=O)c4ccccc4)c4ccccc4)C(C)=C1C3(C)C)[C@]1(OC(C)=O)CO[C@@H]1C[C@@H]2O [PTX, paclitaxel] |  |  |  | 5 | 25 | 25 | effect on KBP particle displacement [11]: significantly decreased the displacement of particles; KBP mean displacement, decrease [11]: 16%; KBP mean velocity, decrease [11]: no meaningful changes; KBP mean movement / proportion of transported particles (TM/CM), reduction [11]: 17%; DBP mean displacement, decrease [10]: no alterations; DBP mean velocity, decrease [10]: no alterations; DBP mean movement / proportion of transported particles (TM/CM), reduction [10]: 27%
CC(=O)O[C@@]12CO[C@@H]1C[C@H](O)[C@@]1(C)C(=O)[C@H](O)C3=C(C)[C@@H](OC(=O)[C@H](O)[C@@H](NC(=O)OC(C)(C)C)c4ccccc4)C[C@@](O)([C@@H](OC(=O)c4ccccc4)[C@H]21)C3(C)C [DTX, docetaxel] | 10 | 10 | 0.03 |  |  |  | 
COC(=O)Nc1nc2ccc(C(=O)c3cccs3)cc2[nH]1 [NOC, nocodazole] |  |  |  |  |  |  | KBP mean displacement, decrease [11]: 54%; KBP mean velocity, decrease [11]: 36%; KBP mean movement / proportion of transported particles (TM/CM), reduction [11]: 68%; DBP mean displacement, decrease [10]: 44%; DBP mean velocity, decrease [10]: 30%; DBP mean movement / proportion of transported particles (TM/CM), reduction [10]: 60%
CC(C)(C)c1[nH]cnc1/C=c1\[nH]c(=O)/c(=C/c2ccccc2)[nH]c1=O [PLIN, plinabulin] | 25 | 25 | 0.5 |  |  |  | reduction of VACV (vtag2GFP) viral infection [12]: 50%; inhibition of ASFV early infection (BPP30GFP) [6]: 30%
COc1cc2cc(c1Cl)N(C)C(=O)C[C@H](OC(=O)[C@H](C)N(C)C(C)=O)[C@]1(C)O[C@H]1[C@H](C)[C@@H]1C[C@@](O)(NC(=O)O1)[C@H](OC)/C=C/C=C(\C)C2 [MAYT, maytansine] | 25 | 25 | 0.1 |  |  |  | decrease of VSV infection [5]: 40%; effect on KBP movement (TM/CM ratio) [11]: significant reduction of the TM/CM ratio
